Assay [1] deals with rats with hyperuricemia. As to the kind of experiment: Urate deposition in rat kidney tissues, hexamine silver staining. It is filed as in vivo. Conditions: FIG. 1, hexamine silver staining, 25 and 50 mg/kg, in words. The method, then: (§1) The establishment of the model as well as the experimental grouping and administration were the same as in Example 1.
(§2) (2) Pathological examination of kidney tissue: anesthetize rats, dissect, and remove kidney tissue. The kidney tissues were fixed with 10% neutral formalin. After sufficient fixation, sampling, gradient dehydration, xylene transparency, paraffin embedding, and preparation of 3 μm paraffin sections were performed according to routine procedures. The kidney tissue lesions as well as urate deposition in the kidney tissues were examined by light microscopy using HE (hematoxylin & eosin) staining and hexamine silver staining, respectively.

Assay [2] concerns rats with hyperuricemic kidney injury. As to the kind of experiment: Kidney function biochemical indicators (serum BUN, SCr) in rats with hyperuricemic kidney injury. Conditions: for BUN / SCr: serum; for BUN: model group 11.87 ± 2.27; for SCr: model group 49.09 ± 9.42. It is filed as in vivo, rat.
Excerpt: as §1
(1) Kidney function biochemical indicators detection: the method of blood sampling and serum collection was the same as in Example 1, and an Automatic Chemical Analysis was used to detect the content of serum creatinine (SCr) by using the creatine oxidase method, and to detect the content of blood urea nitrogen (BUN) by using the urease method and the kinetic method.

Assay [3] deals with rats with hyperuricemia. Kind of assay: Pathological examination of rat kidney tissue, HE staining. Conditions: FIG. 2, HE staining, in words. It is filed as in vivo. On the procedure: as §1, §2
Assay [4] has as its system rats with hyperuricemia. Kind of assay: Blood uric acid level in rats with adenine combined with ethambutol-induced hyperuricemia. It is filed as in vivo, rat. Conditions: for Blood uric acid: serum, mean±SD, model group 144.43 ± 31.20. The method, then:
There were 48 Male SPF grade SD rats, weighing 200-220 g, purchased from Beijing Vital River Laboratory Animal Technology Co., Ltd., license No. SCXK (Beijing) 2016-0006. The animals were housed in a barrier environment animal laboratory, with automatic temperature control (temperature 20-26° C.), relative humidity 40-70%, and full fresh air. Artificial light was adopted with a 12-hour light-dark cycle. Group experiments were started after 1 day of acclimatization. Animals were fed with standard rat pellet feed, provided by Beijing Keao Xieli Feed Co. Ltd., with purified water.
The rats were randomly divided into 6 groups of 8 rats each, which were control group, model group, typhaneoside low dose group (25 mg/kg) and typhaneoside high dose group (50 mg/kg), isorhamnetin low dose group (25 mg/kg) and isorhamnetin high dose group (50 mg/kg).
Adenine was purchased from Sigma-Aldrich (USA), and 0.5% CMC-Na was used to formulate adenine into a suspension at a concentration of 20 mg/mL, ready-to-use, with an administration volume of 5 mL/kg and a dosage of 100 mg/kg. Ethambutol hydrochloride tablets were purchased from Chengdu Jinhua Pharmaceutical Co., Ltd, and 0.5% CMC-Na was used to formulate ethambutol hydrochloride tablets into a suspension at a concentration of 50 mg/ml, ready-to-use, with an administration volume of 5 mL/kg and a dosage of 250 mg/kg. […]
Observation and detection indicators: fasting for 16 hours after the last administration, blood was collected from the abdominal aorta of rats in each group, centrifuged at 3500 rpm for 15 minutes after standing, separated and collected serum, and the content of uric acid in the serum was measured using an Automatic Chemical Analysis.
Statistical methods: data were expressed as mean±standard deviation (x±S) and analyzed by one-way ANOVA. […]

[5] abbreviates: high dose 50 mg/kg by gavage once a day for 7 days.
Setting [6] is: low dose 25 mg/kg by gavage once a day for 7 days.

As to `COc1cc(-c2oc3cc(O)cc(O)c3c(=O)c2O)ccc1O` [Isorhamnetin, isorhamnetin], the “Deposited urate crystals in kidney tissue compared with the model group” value in the assay with rats with hyperuricemia [1] is given as “only slightly reduced”. For the same compound, the “Serum BUN level compared with the model group” value in assay [2] (25 and 50 mg/kg, in words) was “did not show significant reduction”. Besides, in assay [2] (25 and 50 mg/kg, in words), the “Serum SCr level compared with the model group” value was “did not show significant reduction”. Moreover, the figures for the BUN in assay [2] (setting [5]) and in assay [2] (setting [6]) were 8.26 ± 3.99 mmol/L and 7.90 ± 2.48 mmol/L, respectively. The SCr was 47.12 ± 12.00 µmol/L in assay [2] (setting [5]) and 41.66 ± 5.72 µmol/L in assay [2] (setting [6]). Further, the “Kidney tissue pathological changes” value is “severe renal tubular dilatation and epithelial cell detachment were still observed” in the assay on rats with hyperuricemia [3] (high dose group 50 mg/kg); “severe renal tubular dilatation and epithelial cell detachment were still observed” with rats with hyperuricemia [3] (low dose group 25 mg/kg). Besides, the “Effect on the blood uric acid level compared with the model group” value with rats with hyperuricemia [4] (different doses (25 and 50 mg/kg), in words) is reported as “did not show a significant reducing effect”. For the same compound, the Blood uric acid with rats with hyperuricemia [4] (setting [5]) worked out at 105.74 ± 42.62 µmol/L; in the assay with rats with hyperuricemia [4] (setting [6]), 118.56 ± 26.76 µmol/L.

These data come from patent US20240358733A1, “APPLICATION OF TYPHANEOSIDE IN PREPARATION OF MEDICINE FOR URIC ACID-LOWERING AND/OR KIDNEY INJURY” (Institute of Chinese Materia Medica, China Academy of …, priority 2023, published 2024).
